Data reported in BindingDB's records for patent US20240293587 (Technische University Munchen, 2024).
Starred links: 1 amine or outer side, 2 acyl side, 3 side chain; linkers in the order of their positions; H or OH if unused. Non-standard residues stand in square brackets, D forms with d. Residues, ends and D or L forms follow the SMILES beside them. Groups on a side chain read outwards from the residue. *: point of attachment. dAla(N-(6-guanidinohexyl)) = C[C@@H](NCCCCCCNC(=N)N)C(=O)O; X1 = C[C@H](C(=O)[*:2])N(CCCCCCNC(=N)NCCCCCCN[*:3])[*:1]; Propanoyl(3-PO3H2) = O=C(CCP(=O)(O)O)*; 2Nal = N[C@@H](Cc1ccc2ccccc2c1)C(=O)O; AEEA = NCCOCCOCC(=O)O; Ahx = NCCCCCC(=O)O

Molecular target: C-X-C chemokine receptor type 4 (Homo sapiens, UniProt P61073)
Assay: Competition Binding Assay
Procedure: (§1) For IC50 determination using Jurkat or Eμ-Myc1080 cells, samples containing 2×10^5 cells (or 4×10^5 cells; exact cell number used in the respective evaluations is given in the results section) in Hank's balanced salt solution (HBSS)/1% Bovine Serum Albumin (BSA) were incubated with 100.000 cpm of the respective radioligand (approx. 0.1 nM) in the presence of increasing concentrations (10−11 to 10−5 M) of the respective peptide of interest (n=3 per concentration). The total sample volume was 250 μL. After incubation at room temperature (RT) for 120 min with gentle agitation (200 mot/min), the tubes were centrifuged (5 min, 450g, Megafuge 1.0, Heraeus Thermo Scientific) and the supernatant was carefully removed. After washing twice with 400 μL of cold HBSS, the amount of cell-bound radioligand was quantified using a […]-counter.[0403]In the case of the adherent C6 glioma cells, cells were harvested using Trypsin/EDTA (0.05 % and 0.02%) in PBS one day prior to the experiment, centrifuged and resuspended with culture medium to a concentration of app. 150.000 cells/mL. The suspension was transferred into PLL-coated twenty-four-well plates (1 mL/well, Greiner, Solingen. Germany) and placed in the incubator overnight. On the day of the experiment, the culture medium was removed and the cells were washed with 250 μL of HBSS before being left to equilibrate in 200 μL of HBSS (1% BSA) at 37° C. for a minimum of 15 min before the experiment. Then, cells were incubated with 100.000 cpm of the respective radioligand (approx. 0.1 nM) in the presence of increasing concentrations (10−11 to 10−5 M) of the respective compound of interest (n=3 per concentration). The total sample volume was 250 μL. After incubation at room temperature (RT) for 120 min, the supernatant was removed and cells were washed twice with 200 μL of cold HBSS. Then, cells were lysed using 250 μL of 1 N NaOH, the lysate was transferred to vials and combined with 250 μL of HBSS used for rinsing the wells. Quantification of the amount of free and bound activity was performed in a […]-counter.

Sequence of C-X-C chemokine receptor type 4 (Homo sapiens, UniProt P61073) (P61073 whole entry): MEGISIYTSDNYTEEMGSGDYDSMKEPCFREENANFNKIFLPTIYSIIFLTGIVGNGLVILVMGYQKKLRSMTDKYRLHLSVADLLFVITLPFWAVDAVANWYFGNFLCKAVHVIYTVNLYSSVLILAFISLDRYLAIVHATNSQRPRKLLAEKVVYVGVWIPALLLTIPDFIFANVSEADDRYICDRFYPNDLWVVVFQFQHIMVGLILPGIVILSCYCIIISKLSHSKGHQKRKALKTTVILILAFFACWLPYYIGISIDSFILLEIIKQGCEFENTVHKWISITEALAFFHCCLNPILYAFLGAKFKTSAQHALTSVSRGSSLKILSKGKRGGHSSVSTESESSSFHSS

SMILES	IC50 [µM]
CC(=O)NCCNC(=N)NCCCCCCN1C(=O)[C@@H](Cc2ccc(O)cc2)NC(=O)CNC(=O)[C@H](Cc2ccc3ccccc3c2)NC(=O)[C@H](CCCNC(=N)N)NC(=O)[C@H]1C [US20240293587, Compound P1]	0.0031
CC(=O)NCCCNC(=N)NCCCCCCN1C(=O)[C@@H](Cc2ccc(O)cc2)NC(=O)CNC(=O)[C@H](Cc2ccc3ccccc3c2)NC(=O)[C@H](CCCNC(=N)N)NC(=O)[C@H]1C [US20240293587, Compound P2]	0.0017
CC(=O)NCCCCCNC(=N)NCCCCCCN1C(=O)[C@@H](Cc2ccc(O)cc2)NC(=O)CNC(=O)[C@H](Cc2ccc3ccccc3c2)NC(=O)[C@H](CCCNC(=N)N)NC(=O)[C@H]1C [US20240293587, Compound P4]	0.0321
CC(=O)NCCCCCCNC(=N)NCCCCCCN1C(=O)[C@@H](Cc2ccc(O)cc2)NC(=O)CNC(=O)[C@H](Cc2ccc3ccccc3c2)NC(=O)[C@H](CCCNC(=N)N)NC(=O)[C@H]1C [US20240293587, Compound P5]	0.0098
C[C@@H]1C(=O)N[C@@H](CCCNC(=N)N)C(=O)N[C@@H](Cc2ccc3ccccc3c2)C(=O)NCC(=O)N[C@H](Cc2ccc(O)cc2)C(=O)N1CCCCCCNC(=N)NCCCCCCNC(=O)CCCCCNC(=O)CCCCCNC(=O)CCP(=O)(O)O [US20240293587, Compound P5k] (cyclo([2Nal]G[dY][X1]([Ahx-Ahx-Propanoyl(3-PO3H2)])R))	0.09
C[C@@H]1C(=O)N[C@@H](CCCNC(=N)N)C(=O)N[C@@H](Cc2ccc3ccccc3c2)C(=O)NCC(=O)N[C@H](Cc2ccc(O)cc2)C(=O)N1CCCCCCNC(=N)NCCCCCCNC(=O)COCCOCCNC(=O)COCCOCCNC(=O)CCP(=O)(O)O [US20240293587, Compound P5m] (cyclo([2Nal]G[dY][X1]([AEEA-AEEA-Propanoyl(3-PO3H2)])R))	0.052
C#CCCCCNC(=N)NCCCCCCN1C(=O)[C@@H](Cc2ccc(O)cc2)NC(=O)CNC(=O)[C@H](Cc2ccc3ccccc3c2)NC(=O)[C@H](CCCNC(=N)N)NC(=O)[C@H]1C [US20240293587, Compound P6]	0.0032
CC(=O)NC(=N)NCCCCCCN1C(=O)[C@@H](Cc2ccc(O)cc2)NC(=O)CNC(=O)[C@H](Cc2ccc3ccccc3c2)NC(=O)[C@H](CCCNC(=N)N)NC(=O)[C@H]1C [US20240293587, Compound P7]	0.0025
CC(=O)NCC(=O)NC(=N)NCCCCCCN1C(=O)[C@@H](Cc2ccc(O)cc2)NC(=O)CNC(=O)[C@H](Cc2ccc3ccccc3c2)NC(=O)[C@H](CCCNC(=N)N)NC(=O)[C@H]1C [US20240293587, Compound P8]	0.0132
CC(=O)NCCCCCC(=O)NC(=N)NCCCCCCN1C(=O)[C@@H](Cc2ccc(O)cc2)NC(=O)CNC(=O)[C@H](Cc2ccc3ccccc3c2)NC(=O)[C@H](CCCNC(=N)N)NC(=O)[C@H]1C [US20240293587, Compound P9]	0.0787
C#CCCC(=O)NC(=N)NCCCCCCN1C(=O)[C@@H](Cc2ccc(O)cc2)NC(=O)CNC(=O)[C@H](Cc2ccc3ccccc3c2)NC(=O)[C@H](CCCNC(=N)N)NC(=O)[C@H]1C [US20240293587, Compound P10]	0.002
CC(=O)N[C@@H](CCCCNC(=O)CSC[C@H]1NC(=O)[C@H](Cc2ccc3ccccc3c2)NC(=O)[C@H](CCCNC(=N)N)NC(=O)[C@@H](C)N(CCCCCCNC(=N)N)C(=O)[C@@H](Cc2ccc(O)cc2)NC1=O)C(N)=O [US20240293587, Compound Pc1]	0.061
CC(=O)NCCCCCCNC(=O)CSC[C@H]1NC(=O)[C@H](Cc2ccc3ccccc3c2)NC(=O)[C@H](CCCNC(=N)N)NC(=O)[C@@H](C)N(CCCCCCNC(=N)N)C(=O)[C@@H](Cc2ccc(O)cc2)NC1=O [US20240293587, Compound Pc2]	0.057
CC(=O)NCCCCCCSC[C@H]1NC(=O)[C@H](Cc2ccc3ccccc3c2)NC(=O)[C@H](CCCNC(=N)N)NC(=O)[C@@H](C)N(CCCCCCNC(=N)N)C(=O)[C@@H](Cc2ccc(O)cc2)NC1=O [US20240293587, Compound Pc3]	> 0.4
CC(=O)NCc1ccc(CNC(=O)CSC[C@H]2NC(=O)[C@H](Cc3ccc4ccccc4c3)NC(=O)[C@H](CCCNC(=N)N)NC(=O)[C@@H](C)N(CCCCCCNC(=N)N)C(=O)[C@@H](Cc3ccc(O)cc3)NC2=O)cc1 [US20240293587, Compound Pc4]	0.053
CC(=O)NCc1cccc(CNC(=O)CSC[C@H]2NC(=O)[C@H](Cc3ccc4ccccc4c3)NC(=O)[C@H](CCCNC(=N)N)NC(=O)[C@@H](C)N(CCCCCCNC(=N)N)C(=O)[C@@H](Cc3ccc(O)cc3)NC2=O)c1 [US20240293587, Compound Pc5]	0.014
C[C@@H]1C(=O)N[C@@H](CCCNC(=N)N)C(=O)N[C@@H](Cc2ccc3ccccc3c2)C(=O)N[C@H](CSCC(=O)NCc2cccc(CNC(=O)CN3CCN(CC(=O)O)CCN(CC(=O)O)CCN(CC(=O)O)CC3)c2)C(=O)N[C@H](Cc2ccc(O)cc2)C(=O)N1CCCCCCNC(=N)N [US20240293587, Compound Pc5a]	0.078
C[C@@H]1C(=O)N[C@@H](CCCNC(=N)N)C(=O)N[C@@H](Cc2ccc3ccccc3c2)C(=O)NCC(=O)N[C@H](Cc2ccc(O)cc2)C(=O)N1CCCCCCNC(=N)N [US20240293587, Compound R] (cyclo([dY][dAla(N-(6-guanidinohexyl))]R[2Nal]G))	0.0008

Molecular target: C-X-C chemokine receptor type 4 (Mus musculus, UniProt P70658)
Assay: Competition Binding Assay
Procedure: as §1

Sequence of C-X-C chemokine receptor type 4 (Mus musculus, UniProt P70658) (P70658 whole entry): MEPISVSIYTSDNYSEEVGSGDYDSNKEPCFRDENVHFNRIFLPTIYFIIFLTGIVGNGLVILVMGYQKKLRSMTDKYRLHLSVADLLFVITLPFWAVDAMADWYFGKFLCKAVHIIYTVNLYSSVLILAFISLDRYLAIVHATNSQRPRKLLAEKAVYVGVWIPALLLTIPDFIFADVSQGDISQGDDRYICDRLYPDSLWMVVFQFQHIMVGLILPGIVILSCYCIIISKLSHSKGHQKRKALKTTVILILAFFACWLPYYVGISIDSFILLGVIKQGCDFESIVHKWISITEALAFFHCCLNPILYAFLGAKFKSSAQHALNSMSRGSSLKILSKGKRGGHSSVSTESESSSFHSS

SMILES	IC50 [µM]
C#CCCCCNC(=N)NCCCCCCN1C(=O)[C@@H](Cc2ccc(O)cc2)NC(=O)CNC(=O)[C@H](Cc2ccc3ccccc3c2)NC(=O)[C@H](CCCNC(=N)N)NC(=O)[C@H]1C [US20240293587, Compound P6]	0.0062
CC(=O)NC(=N)NCCCCCCN1C(=O)[C@@H](Cc2ccc(O)cc2)NC(=O)CNC(=O)[C@H](Cc2ccc3ccccc3c2)NC(=O)[C@H](CCCNC(=N)N)NC(=O)[C@H]1C [US20240293587, Compound P7]	0.0016
C#CCCC(=O)NC(=N)NCCCCCCN1C(=O)[C@@H](Cc2ccc(O)cc2)NC(=O)CNC(=O)[C@H](Cc2ccc3ccccc3c2)NC(=O)[C@H](CCCNC(=N)N)NC(=O)[C@H]1C [US20240293587, Compound P10]	0.0055
